{"source": "patent US11952358B2", "about": "“Flavan-3-ol analogs and anti-inflammatory activity” (Hong Kong Baptist University, priority 2021, dated 2024)", "key": {"RAW 264.7 cells": {"system": "RAW 264.7 cells", "experiment": "CCK8 cell viability assay", "assay_type": "cell-based, mouse", "details": "100 μM, 24 h", "procedure": "(§1) RAW 264.7 cells were plated in a 96-well plate and treated with each compound (0, 25 μM, 50 μM and 100 μM) for 24 h. The viability of cells was tested by CCK8 assay. Data from three times independent experiments were expressed as means±SD. *P<0.05 compared with the control group for compound 3a-3j.\nRAW 264.7 cells were plated in a 96-well plate and treated with each compound (0, 25 μM, 50 μM and 100 μM) for 24 h. The viability of cells was tested by CCK8 assay. Data from three times independent experiments were expressed as means±SD. *P<0.05 compared with the control group for compound 3k-3t.\nRAW 264.7 cells were plated in a 96-well plate and treated with each compound (0, 25 μM, 50 μM and 100 μM) for 24 h. The viability of cells was tested by CCK8 assay. Data from three times independent experiments were expressed as means±SD. *P<0.05 compared with the control group for compound 3u-3ad.\nas §1, with “3ae-3ag′.” for “3a-3j.”\nCell Viability Assay The CCK8 assay was used to evaluate the effect of each flavan-3-ol on the viability of RAW264.7 cells. Cells were plated into 96-well plates at a density of 2×10^5 cells/well in medium and cultured overnight. For formal experiments, cells were treated with different concentrations of flavan-3-ols (25, 50, and 100 μM). After 24 h, 20 μl CCK8 solution (cat #A311-01/02, Vazyme Biotech Co., Ltd., Nanjing, China) was added into the medium and incubated for 45 min. The absorbance was measured at 450 nm.\nTo evaluate the anti-inflammatory effects of these newly synthesized flavan-3-ols, RAW 264.7 cells (mouse monocyte/macrophage cell) were used as the in vitro model. First, CCK-8 (Cell Counting Kit-8) assay was performed to test the effects of these newly synthesized flavan-3-ols on cell viability (FIG. 9a-d). RAW 264.7 cells were treated with the newly synthesized flavan-3-ols ranging from 25 to 100 μM for 24 h. As shown in […], treatment with each compound at 25 and 50 μM for 24 h had no effect on the cell viability of RAW 264.7 cell. […] Therefore, the final concentration of each compound used in the following experiments were no more than 100 μM, and compound concentrations at 25 and 50 μM were used in the further experiments."}, "[1]": {"system": "LPS-stimulated RAW 264.7 cells", "experiment": "RNA-sequencing analysis with GO and KEGG enrichment", "assay_type": "cell-based, mouse", "procedure": "RNA-sequencing analysis RAW 264.7 cells were treated with each flavan-3-ol (25, 50 μM) for 24 h followed by LPS (1 μg/mL) stimulation for another 2 h. Cells were collected and then directly prepared for cDNAs amplification and RNA-Seq library construction. Total RNA was isolated with TRIzol reagent from each group. A complementary DNA library was prepared and sequencing was performed according to the Illumina standard protocol developed by Suzhou GENEWIZ Biological Technology Co., Ltd. (https://www.genewiz.com). […] After filtering, reference genome and gene model annotation files were downloaded from a genome website browser (NCBI/UCSC/Ensembl). Indexes of the reference genome were built using Bowtie v2.0.6 and paired-end clean reads were aligned to the reference genome using TopHat v2.0.9. Bowtie was used for a BWT (Burrows-Wheeler Transformer) algorithm for mapping reads to the genome and Tophat can generate a database of splice junctions based on the gene model annotation file and thus achieve a better mapping result than other non-splice mapping tools. For the quantification of gene expression level, HTSeq V0.6.1 was used to count the read numbers mapped for each gene. The RPKM of each gene was calculated based on the gene read counts mapped to this gene. A differential expression analysis was performed using the DESeq R package (1.10.1). For clustering, the inventors clustered different samples to see the correlation using hierarchical clustering distance method with the function of heatmap, SOM (Self-organization mapping) and k means using silhouette coefficient to adapt the optimal classification with default parameter in R. The complete RNA-seq datasets in this manuscript captioned has been deposited at GEO database (http://www.ncbi.nlm.nih.gov/geo/) under accession ID GSE181052.\nGene ontology (GO) and KEGG enrichment analysis GO enrichment analysis of differentially expressed genes was implemented by the GOseq R Package, in which gene length bias was corrected. GO analysis was performed with the DAVID online tool (https://david.ncifcrf.gov/). Top GO categories were selected according to the P-values. Pathways of differentially expressed genes were analyzed by the KEGG database (http://www.kegg.jp/kegg/). The inventors used KOBAS software to test the statistical enrichment of differential expression genes in KEGG pathways.\nRNA-seq analysis of downstream genes regulated by flavan-3-ols. […] RNA-seq analysis was performed to further study the effects of compounds 3m, 3o, 3p, 3ae and 3ag on gene transcriptional pathways related to inflammation. RAW 264.7 cells were used in the RNA-seq analysis, in which cells were pretreated with each compound (50 μM) for 24 h followed by LPS (1 μg/mL) stimulation for another 2 h. […] Next, the inventors focused on genes related to inflammatory reactions and inflammation-related diseases (inflammation-related genes) based on the gene and pathway classification of Kyoto Encyclopedia of Genes and Genomes (KEGG database).\nTo further analyze the functional distribution of differentially-expressed genes in relation to different biological processes, cellular components and molecular functions, gene ontology (GO) enrichment analysis was performed. The histogram of GO enrichment of differentially-expressed genes was presented.\nFurthermore, to determine the biochemical metabolic pathways and signal transduction pathways involved in differentially expressed genes regulated by compound 3ag, KEGG pathway analysis was then performed."}, "IL-1β": {"system": "IL-1β", "experiment": "ELISA of IL-1β secretion from LPS-stimulated RAW 264.7 cells", "assay_type": "cell-based, mouse", "details": "compound 50 μM 24 h, then LPS 1 μg/mL 2 h (FIG. 8)", "procedure": "RAW 264.7 cells were pretreated with each compound (50 μM) for 24 h followed by LPS (1 μg/mL) stimulation for another 2 h. The concentrations of IL-1β in RAW 264.7 cell culture supernatants were measured by ELISA kits and the inhibition rate of compound on the secretion of each pro-inflammatory cytokine was calculated. Data from three independent experiments were expressed as means±SD. *P<0.05, **P<0.01 compared with LPS-stimulated group.\nCell culture The RAW 264.7 cell line was purchased from the Cell Bank of Shanghai Institute of Biochemistry & Cell Biology at the Chinese Academy of Sciences (Shanghai, China) and cultured in DMEM supplemented with 10% (v/v) fetal bovine serum (FBS), 100 U/ml penicillin and 100 […], in a stable environment with 5% CO2 at 37° C. Before used in the following in vitro experiments, RAW 264.7 cells were pretreated with synthesized flavan-3-ol (25, 50 μM) for 24 h followed by LPS (1 μg/mL) stimulation for another 2 h.\nEnzyme-Linked Immunosorbent Assay (ELISA) RAW 264.7 cells were treated with these synthesized flavan-3-ols (25, 50 μM) for 24 h followed by LPS (1 μg/mL) stimulation for another 2 h and the culture supernatant was collected. The concentrations of IL-1β, IL-6 and TNF-α in the culture supernatant of RAW 264.7 cells were determined according to the manufacturer's instructions of the Duo-set enzyme linked immune sorbent assay kits, purchased from R&D Systems Co. Ltd. (Minneapolis, MN, USA).\nThe increased pro-inflammatory cytokines production in RAW 264.7 cells has been reported to play an influential role in the inflammation response. To evaluate the anti-inflammatory effects of these flavan-3-ols in vitro, ELISA kits were employed to investigate their effects on the LPS (lipopolysaccharide)-induced pro-inflammatory cytokines production of RAW 264.7 cells. After treating with the flavan-3-ols (25 and 50 μM) and stimulated by LPS, the levels of three main pro-inflammation cytokines including IL-1β ([…]), IL-6 (interleukin-6), and TNF-α (tumor necrosis factor-α) in culture supernatant from RAW 264.7 cells were measured by ELISA kits, and then the inhibition rates of the flavan-3-ols on the secretion of each pro-inflammatory cytokine were calculated by the formula shown as follows.\n[formula] In this formula, “L” refers to “the pro-inflammatory cytokine level in cell culture supernatant of LPS-induced group (L)” and “Lc” refers to “the pro-inflammatory cytokine level in cell culture supernatant of compound-treated group (Lc)”. Using this calculation, the reduced levels of pro-inflammation cytokines in the compound treated group would give higher values, which reflect higher inhibition rates.\nFIG. 4a-c show the effect of flavan-3-ols on pro-inflammatory cytokine secretion in vitro. RAW 264.7 cells were pretreated with each compound (25, 50 μM) for 24 h followed by LPS (1 μg/mL) stimulation for another 2 h. The concentrations of IL-1β, IL-6, TNF-α in RAW 264.7 cell culture supernatants were measured by ELISA kits and the inhibition rate of compound on the secretion of each pro-inflammatory cytokine was calculated."}, "[2]": {"details": "50 μM, vs LPS-stimulated group, of a total of 1915 genes"}}}
{"compound": "O[C@H]1Cc2cc(F)ccc2O[C@@H]1c1ccccc1", "note": "[3ad, (2R,3S)-6-fluoro-2-phenylchroman-3-ol]", "values": [{"measurement": "effect on cell viability", "setting": "RAW 264.7 cells", "value": "reduced viability"}, {"measurement": "melting point", "value": "110 to 111", "unit": "°C"}]}
{"compound": "O[C@H]1Cc2ccccc2O[C@@H]1c1cccs1", "note": "[3n, (2S,3S)-2-(thiophen-2-yl)chroman-3-ol]", "values": [{"measurement": "effect on cell viability", "setting": "RAW 264.7 cells", "value": "reduced viability"}, {"measurement": "melting point", "value": "94 to 95", "unit": "°C"}]}
{"compound": "O[C@H]1Cc2ccccc2O[C@@H]1c1ccc(C(F)(F)F)cc1", "note": "[3i, (2R,3S)-2-(4-(trifluoromethyl)phenyl)chroman-3-ol]", "values": [{"measurement": "effect on cell viability", "setting": "RAW 264.7 cells", "value": "reduced viability"}, {"measurement": "melting point", "value": "114 to 115", "unit": "°C"}]}
{"compound": "O[C@H]1Cc2cc(Cl)cc(Cl)c2O[C@@H]1c1ccccc1", "note": "[3ag, (2R,3S)-6,8-dichloro-2-phenylchroman-3-ol]", "values": [{"measurement": "genes differentially regulated", "setting": "[1]; 50 μM 24 h, then LPS 1 μg/mL 2 h, vs untreated LPS-stimulated group", "value": 1098, "unit": "genes"}, {"measurement": "genes downregulated", "setting": "[1]; 50 μM, vs LPS-stimulated group", "value": 954, "unit": "genes"}, {"measurement": "genes upregulated", "setting": "[1]; 50 μM, vs LPS-stimulated group", "value": 144, "unit": "genes"}, {"measurement": "inflammation-related genes downregulated", "setting": "[1]; 50 μM, vs LPS-stimulated group, KEGG-classified inflammation-related genes", "value": 40, "unit": "genes"}, {"measurement": "genes downregulated, share of genes expressed", "setting": "[1]; [2]", "value": 49.8, "unit": "%"}, {"measurement": "genes upregulated, share of genes expressed", "setting": "[1]; [2]", "value": 7.5, "unit": "%"}, {"measurement": "GO enrichment of downregulated genes", "setting": "[1]; vs LPS-induced group (FIG. 6)", "value": "associated with inflammatory response (GO: 0006954) and cellular response to lipopolysaccharide (GO: 0071222)"}, {"measurement": "KEGG pathways of downregulated genes", "setting": "[1]; vs LPS-induced group (FIG. 7a-b)", "value": "IL-17 signaling pathways, PI3K-Akt signaling pathway and TNF signaling pathway"}, {"measurement": "melting point", "value": "126 to 127", "unit": "°C"}, {"measurement": "inhibition rate of IL-1β secretion compared with enantiomer and racemic form", "setting": "IL-1β", "value": "higher inhibition rates than their enantiomers"}]}
{"compound": "O[C@H]1Cc2c(F)cc(F)cc2O[C@@H]1c1ccc(F)c(F)c1", "note": "[3ai, (2R,3S)-2-(3,4-difluorophenyl)-5,7-difluorochroman-3-ol]", "values": [{"measurement": "effect on cell viability", "setting": "RAW 264.7 cells", "value": "reduced viability"}]}
